Source: patent US9802897B2, “Amidopyridinol derivative or pharmaceutically acceptable salt thereof and pharmaceutical composition comprising same as active component” (Research Cooperation Foundation of Yeungnam University, priority 2013, dated 2017)
Values joined by “and” are separate entries in the source; they are usually repeats but may differ in a detail not shown here. Equal entries are not always repeated.

Legend:
TNBS-induced colitis = TNBS-induced colitis model of inflammatory bowel disease; type: in vivo, rat (Sprague Dawley); conditions: for conditions of the large intestine observed with the naked eye / changes in weights of the rat: TNBS-induced rats; for weight of the large intestine: vs TNBS-treated group
From the text: To see alleviating effects of the compounds of the present invention on colitis, an animal model induced by TNBS and having colitis was used for the experiments. The animal used herein was a 7 to 8 week Sprague Dawley species purchased from Samtaco Bio Korea. After the purchase, the animal was stabilized with typical solid feed for 2 days before being used for the experiments. The animal was freely supplied with feed and water during the experiments, and stayed in conditions maintaining a cage temperature of about 25±1° C. and relative humidity of about 50±10%. The cage was equipped with an automatic lightening system to adjust 12-hour light-dark cycle.
In regard to the experimental groups, 5 groups (i.e., a control group, a group administered with TNBS only, […], […], […]) were used according to the randomized block design, wherein each group consists of 6 rats having an average weight of about 180±10 g. The rats that had been fasting for 24 hours were anesthetized with diethylether (Et2O), and then, a 1 mL syringe connected with a polyethylene catheter was used to slowly inject 0.8 mL of 3% TNBS into colonic enema through the anus, wherein TNBS was diluted with 50% (v/v) ethanol. To prevent leakage of 3% TNBS from the anus, the rats turned upside down and let stand for 60 minutes.
In regard to the control group, only a vehicle (50% (v/v) ethanol) was injected into the rats of the control group in the same manner as in preparation of other experimental groups. To examine the effects of the drug, after being fasting for 24 hours, the rats were administered with drugs, i.e., 0.1 mg/kg or 1.0 mg/kg of Compounds 8a and 8j, once a day at a certain time from the second day to the fifth day of the TNBS treatment. As a comparative experimental material, 5-ASA, which is an active metabolite of sulfasalazine that is the most well-known as a therapeutic agent for IBDs, was used as a positive control group.
All the rats were scarified on the seventh day of the TNBS administration. […] After the large intestine of the rat was harvested, a 5 to 6 cm-long tissue from was cut from the anus to a size of 1 cm, and then, subjected to measure an intestine weight and activation of myeloperoxidase (MPO) in the tissue, and to perform a biopsy. In addition, changes in weight of all the animals used in the experiments were observed by using a digital mass meter, beginning from the fasting step, the TNBS administration, and the drug administration. In consideration of the management and use of laboratory animals, the animal experiments were followed according to institutional guidelines from Laboratory Animal Resources, Yeungnam University.
To measure the activation of MPO, an MPO assay was used. The colorectal tissue was washed with cold PBS, and a weight thereof was measured. Then, 200 μL of lysis buffer (pH7.4, 200 mM NaCl, 5 mM EDTA, 10 mM Tris, 10% glycerol) was added for each 10 mg of the weight of the tissue, and then, the tissue homogenizer (Bio homogenizer M133, BIOSPEC PRODUCTS Inc. USA) was used for 30 seconds in terms of homogenization. The homogenized sample was subjected to centrifugation (1500×g) twice, each for 15 minutes. The supernatant obtained therefrom was used to measure the activation of MPO by using the MPO ELISA kit (HK210, Hycult Biotechnology, Netherlands). 100 μL of the supernatant was added to the 96-well plates, each of which well was coated with an anti-mouse MPO antibody, to allow a reaction at room temperature for 1 hour, followed by being washed with PBS three times. Here, 100 μL of a reconstituted tracer was added thereto to allow a reaction at room temperature for 1 hour, followed by being washed three times repeatedly. Then, 100 μL of a reptavidin-peroxidase conjugate was added thereto to allow a reaction at room temperature for 1 hours, followed being washed. Then, 100 μL of a TMB substrate solution was added thereto to allow a reaction for 30 minutes. […]

HT-29 cells / U937 cells = experiment: TNF-α-induced adhesion of HT-29 intestinal epithelial cells and U937 mononuclear cells; type: cell-based, human; conditions: Homo sapiens, TNF-α 10 ng/ml, read-out: Inhibitory rates (%); for inhibition at 1 µM: pre-treated 1 hour
Outline: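 HT-29 cells were pretreated with compound for 1 h in serum-free medium, then stimulated with TNF-α 10 ng/ml for 3 h at 37 °C. BCECF-AM-labelled U937 cells were co-incubated for 1 h at 37 °C. Non-adherent cells were washed off, and lysates in 0.1% Triton X-100/0.1 M Tris were read by fluorescence.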

cathepsin S = experiment: RT-PCR of cathepsin S gene expression in MDA-MB-231 cells; type: cell-based; conditions: Homo sapiens, MDA-MB-231, 24 h, screening, 1 μM of each compound; MDA-MB-231, RT-PCR; read-out: Inhibition rate of expression of cathepsin S (%)
Method: Each compound of the present invention was treated with breast cancer cells (1×10^5 cell/cm^2), e.g., MDA-MB-231, and then, cultured at a temperature of 37° C. for 24 hours in a cell incubator. Afterwards, a trizole reagent was used to extract the entire mRNA therefrom. 24 hours later, the culture medium was removed therefrom, 1 mL of the triazole reagent was added to each well, and then, the cell elusion was transferred to a 1.5 mL tube. After 200 μl of chloroform was added to each sample, the samples were subjected to centrifugation at a temperature of 4° C., at 12,000 g, for 15 minutes. 500 μl of the supernatant obtained therefrom was transferred to a new tube. After 500 μl of isopropylalcohol was added to each sample, the samples were subjected to centrifugation at a temperature of 4° C., at 12,000 g, for 15 minutes. The supernatant obtained therefrom was removed from each sample, and then, the samples were washed with 75% ethanol to clean mRNA while the precipitants were dried. Then, mRNA extracted therefrom was dissolved in RNase-free water, followed by being heated at a temperature of 55° C. for 10 minutes.
After the RNA quantification, the GoScript™ reverse transcription system (Promega Corporation, Madison, Wis., USA) was used to synthesize cDNA. Here, PCR was performed by using TaKaRa Taq™ (Takara bio Inc., Shiga, Japan), wherein a primer set of cathepsin S consists of a forward primer having SEQ ID NO: 1 (forward sequence: 5′-GCAGTGGCACAGTTGCATAA-3′) and a reverse primer having SEQ ID NO: 2 (reverse sequence: 5′-AGCACCACAAGAACCCATGT-3′). After the PCR product was subjected to agarose gel electrophoresis, the PCR product was stained with ethidium bromide (0.5 μg/ml), thereby obtaining images thereof by using the gel imaging system (UVP, Cambridge, UK). Here, the PCR product was quantified based on glyceraldehyde 3-phosphate dehydrogenase (GAPDH). A GAPDH primer used herein consists of a forward primer having SEQ ID NO: 3 (forward sequence: 5′-GGTGAAGGTCGGAGTCAACG-3′) and a reverse primer having SEQ ID NO: 4 (reverse sequence: 5′-CAAAGTTGTCATGGATGACC-3′).
Furthermore, to screen other amidopyridinol derivatives that inhibit metastasis of breast cancer cells, inhibitory effects on expression of cathepsin S genes were reviewed by treating 1 μM of each compound, in the same manner as in Experimental Example 9.

A549 lung cancer cells = experiment: CAM inoculated with A549 lung cancer cells: angiogenesis and tumor growth; type: in vivo, chicken; conditions: for Inhibition rates of angiogenesis (%) / Inhibition rates of tumor growth (%): A549 on CAM, 5 days
Method: To confirm inhibitory effects on angiogenesis through in vivo experiments, the CAM analysis was carried out (refer to Nguyen M et al., Microvascular Res., 47, pp 31-40, 1994). A fertilized egg of a chicken was cultured in conditions maintaining a temperature of 37° C. and relative humidity of 55%. On the 9th day of the culturing, a first small hole was made on an air sac part using a hypodermic needle (Green Cross Medical Corp., Korea), and then, a second hole was made on a flat part of the fertilized egg to make a window thereon. Air was removed through the first hole, i.e., the air sac part, and accordingly, the CAM was separated from the shell of the fertilized egg. Then, a grinding wheel (Multipro 395JA, Dremel, Mexico) was used to cut the air sac part, thereby making a window thereon. Meanwhile, A549 lung cancer cells were mixed with matrigel at a ratio of 1:1, and then, the mixture was treated with Compounds 8a, 8b, and 8g, respectively, followed by being inoculated at a density of 1.5×10^6 cells/CAM.
After 5 days of the inoculation, the CAM part on which tumors were formed was isolated, and then, washed with PBS. The Stemi SV6 stereomicroscope (Carl Zeiss, Germany) and the Image-Pro Plus software (Media Cybernetics; Silver Spring, Md., USA) were used to capture images of the CAM part, so as to measure the number of the blood vessels and to analyze data obtained therefrom.

[1] = test system: VEGF-induced angiogenesis in chicken chorioallantoic membrane (CAM); experiment: CAM analysis of VEGF-induced angiogenesis; type: in vivo; conditions: for inhibition in vivo at 0.01 nmol/CAM: Gallus gallus, 72 h, VEGF (20 ng/CAM) + Compound (0.01 nmol/CAM), number of blood vessels after 3 days, read-out: Inhibitory rates (%)
Method: To confirm inhibitory effects on angiogenesis through in vivo experiments, the chorioallantoic membrane (CAM) analysis was carried out (refer to Nguyen M et al., Microvascular Res., 47, pp 31-40, 1994). A fertilized egg of a chicken was cultured in conditions maintaining a temperature of 37° C. and relative humidity of 55%. On the 10th day of the culturing, a first small hole was made on an air sac part using a hypodermic needle (Green Cross Medical Corp., Korea), and then, a second hole was made on a flat part of the fertilized egg to make a window thereon. Air was removed through the first hole, i.e., the air sac part, and accordingly, the CAM was separated from the shell of the fertilized egg. Then, a grinding wheel (Multipro 395JA, Dremel, Mexico) was used to cut the air sac part, thereby making a window thereon. Next, the whatman filter disk #1 (Whatman Company, USA) was treated with 3 mg/mL of cortisone acetate, dried, and then, wet by VEGF at a concentration of 20 ng/CAM. The filter disk was placed on blood vessels through the window, and then, compounds prepared according to Examples above were each dissolved in DMSO, diluted with PBS, and then, treated for each concentration. After 3 days of treating the compounds, the CAM part on which the filter disk was placed was isolated, and then, washed with PBS. The Stemi SV6 stereomicroscope (Carl Zeiss, Germany) and the Image-Pro Plus software (Media Cybernetics; Silver Spring, Md., USA) were used to capture images of the CAM part, so as to measure the number of the blood vessels and to analyze data obtained therefrom.

Structure (SMILES): Nc1ccc(O)c(C(=O)O)c1 [Compound 5-ASA, 5-aminosalicylic acid, reference compound]
- activation of myeloperoxidase (MPO) in colorectal tissue (TNBS-induced colitis; 100 mg/kg): significantly decreased activation of MPO
- conditions of the large intestine observed with the naked eye (TNBS-induced colitis; 100 mg/kg): significantly inhibited
- weight of the large intestine (TNBS-induced colitis; 100 mg/kg): significantly decreased
- changes in weights of the rat (TNBS-induced colitis; 300 mg/kg): slowly recovered on the third day
- inhibition at 20000 µM (HT-29 cells / U937 cells; 20 mM): 46.8%

Structure (SMILES): Cc1nc(NC(=O)C2CCCC2)c(C)c(C)c1O [Compound 8g, N-(5-hydroxy-3,4,6-trimethylpyridine-2-yl)cyclopentane carboxamide]
- inhibition at 1 µM (HT-29 cells / U937 cells): 42.8%
- inhibition at 1 µM (cathepsin S): ≥ 50%
- Inhibition rates of angiogenesis (%) (A549 lung cancer cells; 0.001 pmol/CAM): 30.9 ± 8.5 %
- Inhibition rates of tumor growth (%) (A549 lung cancer cells; 0.001 pmol/CAM): 13.2 ± 3.5%
- Inhibition rates of angiogenesis (%) (A549 lung cancer cells; 0.01 pmol/CAM): 48.4 ± 4.1 %
- Inhibition rates of tumor growth (%) (A549 lung cancer cells; 0.01 pmol/CAM): 24.0 ± 1.6 %
- Inhibition rates of angiogenesis (%) (A549 lung cancer cells; 0.1 pmol/CAM): 54.4 ± 6.7 %
- Inhibition rates of tumor growth (%) (A549 lung cancer cells; 0.1 pmol/CAM): 45.1 ± 3.1 %
- Inhibition rates of angiogenesis (%) (A549 lung cancer cells; 1.0 pmol/CAM): 58.1 ± 6.8 %
- Inhibition rates of tumor growth (%) (A549 lung cancer cells; 1.0 pmol/CAM): 62.7 ± 2.3 %
- inhibitory effects on angiogenesis and tumor growth (in words) (A549 lung cancer cells; at each density): inhibited angiogenesis upon tumorigenesis, as well as tumor growth
- inhibition in vivo at 0.01 nmol/CAM [1]: 81.8 ± 8.4%
- ID50 against inhibition of angiogenesis ([1]; VEGF-induced CAM angiogenesis): 0.9 pg/CAM and 3.6 fmol/CAM

Structure (SMILES): Cc1nc(NC(=O)CCc2ccccc2)c(C)c(C)c1O [Compound 8j, N-(5-hydroxy-3,4,6-trimethylpyridine-2-yl)-3-phenylpropanamide]
- changes in weights of the rat (TNBS-induced colitis; 1.0 mg/kg once a day): significant weight recovery and increased weight
- conditions of the large intestine observed with the naked eye (TNBS-induced colitis; 1.0 mg/kg): excellent inhibitory effects on swelling and congestion
- weight of the large intestine (TNBS-induced colitis; 1.0 mg/kg): significantly decreased
- inhibition at 1 µM (HT-29 cells / U937 cells): 72.5%
- inhibition in vivo at 0.01 nmol/CAM [1]: 74.2 ± 3.9%
